Common to all, as to test: NCI-60 cell line screen, 48 h
In assay [1] the test system is KM12.
Assay [2] concerns SF-268.
The subject of assay [3] is PC-3.
Assay [4] has as its system HOP-62.
For assay [5], the system named is 786-0.
In assay [6] the test system is RPMI-8226.
Assay [7] has as its system M14.
Assay [8] relates to IGROV-1.
The test system of assay [9] is MDA-MB-231.
Assay [10] concerns SN12C.
Assay [11] has as its system SNB-75.
In assay [12] the test system is BT-549.
Assay [13] relates to HT-29.
The subject of assay [14] is SK-OV-3.
In assay [15] the test system is OVCAR-8.
Assay [16] concerns MOLT-4.
Assay [17] relates to SF-295.
The subject of assay [18] is SF-539.
Assay [19] has as its system NCI-H23.
Assay [20] concerns OVCAR-4.

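A five-concentration, 48-hour dose response in 96-well plates underlies each endpoint, interpolated linearly between surrounding concentrations. Abbreviation: GI50, concentration required for 50% inhibition of growth.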 Calls of active or inactive are those of the source. Rule as the data show it: active = GI50 up to about 1.1 µM and inactive = higher.

Regarding `CN(C)CCCN1c2ccc([N+](=O)[O-])cc2CCc2cc([N+](=O)[O-])ccc21`, the GI50 was 16 µM (inactive) in assay [1]; 14.5 µM (inactive) in assay [2]; 13.6 µM (inactive) in assay [3]; 12.5 µM (inactive) in assay [4]; 13.9 µM (inactive) in assay [5]; 15.5 µM (inactive) in assay [6]. In addition, the GI50 is 14.5 µM (inactive) in assay [7]; 14.6 µM (inactive) in assay [8]; 10.3 µM (inactive) in assay [9]; 15 µM (inactive) in [10]; 15.3 µM (inactive) in assay [11]; 15.4 µM (inactive) in assay [12]. Further, the GI50 was 12.4 µM (inactive) in assay [13]; 14.9 µM (inactive) in assay [14]; 15.8 µM (inactive) in [15]; 10.1 µM (inactive) in assay [16]; 15.6 µM (inactive) in assay [17]; 18.3 µM (inactive) in assay [18]. The GI50 in assay [19] was 18.6 µM (inactive).
As to `COc1cc(C2c3cc4c(cc3OC(NCCO)C2C)OCO4)cc(OC)c1O` (stereo unspecified), the GI50 in assay [1] was 6.78 µM (inactive); in assay [2], 39.6 µM (inactive); in assay [3] it was 8.79 µM (inactive); in assay [5], 8.26 µM (inactive); in assay [6], 3.23 µM (inactive); in [7], 9.55 µM (inactive). In addition, the GI50 in assay [8] was 7.11 µM (inactive); in assay [9] it was 7.23 µM (inactive); in [10], 4.6 µM (inactive); in assay [11], 7.45 µM (inactive); in assay [12], 9.53 µM (inactive); in assay [13] it was 7.11 µM (inactive). Also, the GI50 in assay [15] is 19 µM (inactive); in assay [17], 5.48 µM (inactive); in assay [20], > 100 µM (inactive); in assay [18], 13.9 µM (inactive); in assay [19], 24.6 µM (inactive).
With `O=C(NNc1ccc([N+](=O)[O-])cc1[N+](=O)[O-])/C(O)=C\C(=O)c1ccccc1`, the GI50 in [1] was 16.3 µM (inactive); in assay [2] it was 17.7 µM (inactive); in assay [3], 20.3 µM (inactive); in assay [4], 16.3 µM (inactive); in [5] it was 13.2 µM (inactive); in assay [6], 15.3 µM (inactive). In addition, the GI50 was 14.3 µM (inactive) in [7]; 17.9 µM (inactive) in [8]; 23.4 µM (inactive) in [9]; 16.5 µM (inactive) in assay [10]; 12.8 µM (inactive) in [11]; 22.2 µM (inactive) in assay [12]. Further, the GI50 in assay [14] is 18.6 µM (inactive); in [15], 18.7 µM (inactive); in [16], 17.7 µM (inactive); in assay [17] it was 15.3 µM (inactive); in assay [20] it was 22.6 µM (inactive); in assay [18] it was 15.4 µM (inactive). Besides, the GI50 in [19] is 20 µM (inactive).
For `C/C(=N\NS(=O)(=O)c1ccc(C)cc1)P(=O)(O)O`, the GI50 in assay [1], in assay [2], in [3], in assay [4], in [5] and in assay [6] was > 100 µM (inactive) throughout. For the same compound, the GI50 in assay [7], in [8], in [9], in assay [10], in assay [11] and in assay [12] was > 100 µM (inactive) throughout. Further, the GI50 in [13], in [14], in assay [15], in assay [17], in [20] and in assay [18] was > 100 µM (inactive) throughout. Also, in assay [19], the GI50 is > 100 µM (inactive).
Take `COc1cc2c(cc1OC)C(=O)/C(=C/c1cc(C)c(O)c(C)c1)C2`: the GI50 is < 0.01 µM (active) in assay [1]; < 0.0143 µM (active) in assay [2]; < 0.01 µM (active) in [3]; < 0.01 µM (active) in [4]; < 0.0184 µM (active) in [5]; < 0.01 µM (active) in assay [6]. The GI50 was < 0.01 µM (active) in [7]; < 0.0166 µM (active) in assay [8]; 0.0171 µM (active) in assay [9]; 0.0244 µM (active) in [10]; < 0.01 µM (active) in assay [11]; > 100 µM (inactive) in assay [12]. The GI50 is 5.19 µM (inactive) in assay [13]; < 0.01 µM (active) in [14]; < 0.01 µM (active) in [16]; < 0.018 µM (active) in [17]; > 100 µM (inactive) in [20]; < 0.01 µM (active) in [18]. The GI50 in [19] was < 0.01 µM (active).
Take `CN(CC(=O)Nc1ccccc1C(=O)O)c1ccccc1`: the GI50 in assay [1], in assay [2], in assay [3], in assay [4], in [5] and in [6] was > 100 µM (inactive) throughout. The GI50 in assay [7] was > 100 µM (inactive); in [8], > 100 µM (inactive); in assay [9], > 100 µM (inactive); in assay [10] it was 40.6 µM (inactive); in [11], > 100 µM (inactive); in [12], > 100 µM (inactive). Moreover, the GI50 in assay [13], in assay [15], in assay [16], in [17], in assay [20] and in assay [18] was > 100 µM (inactive) in each case. Besides, the GI50 in assay [19] is > 100 µM (inactive).
As for `O=C1C(Cl)=C(N2C(=O)CCCC2=O)C(=O)c2ccccc21`, the GI50 in [1] is 62.1 µM (inactive); in assay [2] it was 23.9 µM (inactive); in assay [3], 19.6 µM (inactive); in assay [4], > 100 µM (inactive); in [5], 16.9 µM (inactive); in assay [6], 7.45 µM (inactive). Besides, the GI50 in [7] is 19.5 µM (inactive); in assay [8], 15.8 µM (inactive); in assay [9], 20 µM (inactive); in [10], 21.2 µM (inactive); in [11], 16.4 µM (inactive); in assay [12] it was 20.3 µM (inactive). In addition, the GI50 in assay [13] is 15.7 µM (inactive); in assay [14], > 100 µM (inactive); in [15] it was 11.7 µM (inactive); in assay [16], 17.9 µM (inactive); in assay [17], 82.2 µM (inactive); in assay [18], 18.5 µM (inactive). The GI50 in assay [19] was 17.2 µM (inactive).
Consider `C#C[C@]1(O)CC[C@H]2[C@@H]3CCC4=C/C(=N/NC(=O)c5cccc6cc7ccccc7nc56)CC[C@@H]4[C@H]3CC[C@@]21CC`, for which the GI50 is > 100 µM (inactive) in assay [1]; 70 µM (inactive) in assay [2]; 62.2 µM (inactive) in assay [3]; 67.9 µM (inactive) in [4]; 34.4 µM (inactive) in assay [5]; 71.6 µM (inactive) in assay [6]. The GI50 was 84.7 µM (inactive) in assay [7]; 87.9 µM (inactive) in assay [8]; > 100 µM (inactive) in assay [9]; 35.4 µM (inactive) in assay [10]; > 100 µM (inactive) in [11]; > 100 µM (inactive) in assay [12]. Also, the GI50 in [13] was 41.4 µM (inactive); in assay [14] it was > 100 µM (inactive); in [15], 45 µM (inactive); in assay [16], 0.0942 µM (active); in assay [20], > 100 µM (inactive); in assay [18], 33.9 µM (inactive). Moreover, in assay [19], the GI50 was > 100 µM (inactive).
As for `COC(=O)/C=C1/OC(c2ccccc2)=C(Br)C1=O`, the GI50 in assay [1] was 55.5 µM (inactive); in [2] it was 49.4 µM (inactive); in assay [3] it was 18.9 µM (inactive); in assay [4], > 100 µM (inactive); in [5], 25 µM (inactive); in assay [6], 31.4 µM (inactive). Further, the GI50 in assay [7] was 44.7 µM (inactive); in assay [8] it was > 10 µM (inactive); in assay [9], 8.07 µM (inactive); in assay [10], 37.1 µM (inactive); in assay [11] it was 45 µM (inactive); in assay [12] it was 18.7 µM (inactive). Further, the GI50 was 20.1 µM (inactive) in assay [13]; > 100 µM (inactive) in assay [14]; 29.9 µM (inactive) in assay [15]; 28.5 µM (inactive) in assay [16]; 55.7 µM (inactive) in assay [20]; 45.9 µM (inactive) in assay [18]. The GI50 in assay [19] is 57.5 µM (inactive).
For `O=C(c1ccccc1)C1C[C@H]2CO[C@H](c3ccccc3)N2C1=O` (stereo partly specified), the GI50 in [1], in assay [2], in [3], in assay [5], in assay [6] and in [7] was > 100 µM (inactive) throughout. Further, the GI50 in [8], in assay [9], in assay [10], in assay [11], in assay [12] and in assay [13] was > 100 µM (inactive) each time. Further, the GI50 in assay [15] was > 100 µM (inactive); in assay [16], 97.9 µM (inactive); in [17], > 100 µM (inactive); in assay [20], > 100 µM (inactive); in assay [18] it was > 100 µM (inactive); in assay [19] it was > 100 µM (inactive).
Regarding `Cc1c(NC(=S)NN)c(=O)n(-c2ccccc2)n1C`, the GI50 in assay [1], in [2], in assay [3], in assay [4], in assay [5] and in [6] was > 100 µM (inactive) each time. Besides, the GI50 in assay [7] was > 100 µM (inactive); in [8], > 100 µM (inactive); in [9], 0.0796 µM (active); in assay [10] it was > 100 µM (inactive); in [11], 20 µM (inactive); in assay [12], > 100 µM (inactive). The GI50 in assay [13], in assay [14], in assay [15], in assay [16], in assay [17] and in assay [20] was > 100 µM (inactive) each time. Further, the GI50 in [18] was > 100 µM (inactive).

The values above are taken from ChEMBL document CHEMBL1201862, “PubChem BioAssay data set” (2004).
